According to patent publication US20260200975A1, “PEPTIDE FOR CARTILAGE REGENERATION, AND USES THEREOF” (CAREGEN CO., LTD., priority 2022, published 2026):
Peptide text beside a SMILES is read from it.

System: human-derived chondrocytes (C28/12, human chondrocyte cell line)
Assay: Cytotoxicity by CCK-8 assay
Format: cell-based
Conditions: C28/12 cells, different concentrations, 3 days, absorbance 450 nm
Experimental: The cytotoxicity of Peptide-1 or Peptide-2 upon addition to human-derived chondrocytes (C28/12, human chondrocyte cell line) was analyzed using a CCK-8 assay.
Specifically, human-derived chondrocytes were seeded in a 96-well plate at a density of 3×10^3 cells/well and cultured in DMEM medium (cat. 11995-065, Gibco) for 24 hours. […] Meanwhile, as a positive control group, one to which TGFβ1 (20 ng/ml) was added was used.

Compound	toxicity in human-derived chondrocytes (CCK-8 activity)
N[C@@H](CCC(=O)O)C(=O)N[C@@H](Cc1ccc(O)cc1)C(=O)N[C@@H](Cc1ccccc1)C(=O)N[C@@H](Cc1c[nH]c2ccccc12)C(=O)O [Peptide-1, Glu(E)-Tyr(Y)-Phe(F)-Trp(W)] (H-EYFW-OH)	did not exhibit toxicity
CC(C)C[C@H](NC(=O)[C@@H](NC(=O)[C@@H](N)CCCNC(=N)N)[C@@H](C)O)C(=O)O [Peptide-2, Arg(R)-Thr(T)-Leu(L)] (H-Arg-Thr-Leu-OH)	did not exhibit toxicity
